{"source": "paper PMC10498667", "about": "(Chemical Science, 2023)", "key": {"[1]": {"biological_target": "T1, Electric eel acetylcholinesterase (eeAChE) (Electrophorus electricus, UniProt O42275)", "T1 construct": "purchased Invitrogen (AChE assay kit)", "T1 sequence (O42275 24-633)": "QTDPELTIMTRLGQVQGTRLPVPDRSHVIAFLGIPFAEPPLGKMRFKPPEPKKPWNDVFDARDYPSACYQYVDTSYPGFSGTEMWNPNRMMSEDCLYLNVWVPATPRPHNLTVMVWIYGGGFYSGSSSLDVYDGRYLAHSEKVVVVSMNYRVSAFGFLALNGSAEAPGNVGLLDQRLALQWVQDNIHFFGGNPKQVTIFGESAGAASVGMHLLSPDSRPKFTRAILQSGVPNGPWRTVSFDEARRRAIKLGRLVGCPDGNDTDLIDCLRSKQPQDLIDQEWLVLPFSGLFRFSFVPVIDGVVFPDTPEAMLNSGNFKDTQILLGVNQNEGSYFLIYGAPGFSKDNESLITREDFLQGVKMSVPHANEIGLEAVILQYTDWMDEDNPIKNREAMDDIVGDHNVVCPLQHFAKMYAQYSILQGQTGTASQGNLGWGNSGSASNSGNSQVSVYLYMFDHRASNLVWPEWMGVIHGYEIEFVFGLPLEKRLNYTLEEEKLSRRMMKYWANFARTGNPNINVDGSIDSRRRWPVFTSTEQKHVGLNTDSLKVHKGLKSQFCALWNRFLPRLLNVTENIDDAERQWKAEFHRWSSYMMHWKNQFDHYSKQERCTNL", "assay": "Fluorometric AChE activity assay", "type": "biochemical", "description": "Inhibiting the activity of AChE can maintain a proper level of ACh under dysregulated cholinergic conditions.[10,11] Thus, the inhibitory capability of flavonoids against AChE was investigated by a previously reported fluorescent AChE assay with slight modifications.[60] […] The inclusion of three hydroxyl groups on the A ring is critical for controlling the catalytic activity of AChE, as previously reported,[49] whereas the incorporation of a chloro substituent, with three hydroxyl groups, and methoxy moieties instead of hydroxyl groups on the A ring can decrease such inhibitory activity. Flavonoids 2, 3, and 1b over 1 illustrates the importance of the position of hydroxyl groups on the A ring and the isoflavone variation in directing the flavonoids' ability to inhibit the activity of AChE. […]\nAll experiments were performed in triplicate.\nAChE Activity Assay. The AChE inhibitory activity of flavonoids was measured by a fluorometric AChE assay kit (Invitrogen) following the manufacturer ’s protocol with slight modifications.\nElectric eel acetylcholinesterase (eeAChE) was dissolved and diluted with a working solution. The eeAChE solution (50 µL) was added into a 96-well plate. Various concentrations of flavonoids were then introduced into the 96-well plate. The final concentrations of flavonoids were as follow: […]\nµM). After shaking, the mixture of eeAChE and flavonoids was pre-incubated for 15 min. A reaction mixture containing acetylcholine, an AChE probe, and AbRedTM was added into the 96-well plate to initiate the reaction. The AChE activity was calculated based on the fluorescence intensity (lex/lem = 571/585 nm) of the wells that was detected after 15 min incubation. Data were normalized to the control (no inhibitor). All experiments were performed in triplicate. […]\nFor the disaggregation studies, Ab (25 µM) was incubated with and without CuCl2 or ZnCl2 (25 µM) for 24 h at 37 °C with constant agitation to generate preformed Ab aggregates. The resultant Ab aggregates were then treated with flavonoids (50 µM) and incubated for additional 24 h with constant agitation. For the additional disaggregation experiments, preformed Ab42 aggregates (25 µM) or Ab42 seeds (10% v/v) with or without metal ions (25 µM for CuCl2 and ZnCl2) were incubated with flavonoids (50 µM) for 24 h with constant agitation. The resultant Ab aggregates were then treated with freshly prepared Ab42"}, "Aβ42": {"biological_target": "T2, Aβ42 (Homo sapiens, UniProt P05067)", "T2 construct": "purchased Peptide Institute, Inc. (Osaka, Japan)", "T2 sequence (P05067 672-713 limits assumed)": "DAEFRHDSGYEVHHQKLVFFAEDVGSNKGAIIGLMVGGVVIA", "assay": "Dot blot assay with anti-oligomer (A11) and anti-fibril (OC) antibodies", "type": "biochemical", "conditions": "flavonoid 200 μM, up to 24 h", "description": "Moreover, to investigate the effects of the flavonoids on the oligomerization and fibrilization of metal-free Aβ42 and metal–Aβ42, we performed the dot blot assay employing anti-oligomer (A11) and anti-fibril (OC) antibodies,[23] as illustrated in Fig. S12. ^† It should be noted that the thioflavin-T (ThT) assay utilized for monitoring the formation of β-sheet-rich aggregates cannot be carried out under our experimental conditions since the absorption windows of 4, 5, and 4b interfere with the excitation and emission wavelengths of ThT (Fig. S13 ^†). […]\nDot Blot Assay. The samples containing Ab42 (100 µM) with or without CuCl2 or ZnCl2 (100 µM) in the absence and presence of flavonoids (200 µM; 1% v/v DMSO) were prepared in 20 mM HEPES, pH 7.4, 150 mM NaCl and incubated for various time points (0, 1, 2, 3, 4, 6, 12, and 24 h). […] The membrane was incubated with a primary antibody [i.e., 6E1026 for Ab species (1:2,000), A1126 for Ab oligomers (1:1,000; Invitrogen, Carlsbad, CA, USA), or OC26 for Ab fibrils (1:2,000; Merch Millipore, Billerica, MA, USA)] in the solution of BSA (2% w/v in TBS-T) for 4 h at room temperature. […] A homemade ECL kit21–23 was used to visualize the results on a ChemiDoc MP Imaging System.\nThe intensity observed from A11- or OC-detectable Ab species was quantified, relative to that detected from 6E10, by the ImageJ software. […]"}, "MTT cytotoxicity assay": {"assay": "MTT cytotoxicity assay", "type": "cell-based", "conditions": "human", "method": "Flavonoid 6 was synthesized following previously reported procedures with modifications.[66–68] […] It should be noted that cell viability was calculated, relative to that of the cells containing an equivalent amount of DMSO.\nCell viability was determined by the MTT assay [MTT = 3-(4,5-dimethylthiazol-2-yl)-2,5-diphenyltetrazolium bromide]. Cells were seeded in a 96-well plate (15,000 cells/100 µL) and treated with the samples {[flavonoid] = 5, 10, 25, 50, and 100 µM (1% v/v DMSO)}. After 24 h incubation, 5Y cells were washed with phosphate buffered saline (PBS; GIBCO). MTT [5 mg/mL in PBS (pH 7.4, GIBCO); 25 µL] was added to each well and the plate was incubated for 4 h at 37 °C. The formazan produced by cells was solubilized using an acidic solution of DMF (pH 4.5, 50% v/v, aq) and sodium dodecyl sulfate (SDS; 20% w/v) overnight at room temperature in the dark. Absorbance was measured at 600 nm by a microplate reader (Molecular Devices). Cell viability, relative to that of the cells containing an equivalent amount of DMSO, was calculated.\nThe measurements were conducted in triplicate. […]"}, "[2]": {"conditions": "fluorometric assay, eeAChE, read-out: IC50 for AChE inhibition"}, "[3]": {"conditions": "Cu(II)–Aβ42 or Zn(II)–Aβ42 100 μM"}, "[4]": {"conditions": "human neuroblastoma 5Y cells, 100 μM flavonoid, 24 h, 5Y cells, relative to DMSO, read-out: cell viability"}, "[5]": {"conditions": "100 μM flavonoid, 24 h, 5Y cells, relative to DMSO, read-out: cell viability"}}, "note": "Where two headings read alike, the source gives them in different places.", "data": [{"smiles": "O=c1c(-c2ccccc2)coc2cc(O)c(O)c(O)c12", "note": "[4b, 5,6,7-trihydroxyisoflavone]", "values": [{"measurement": "IC50", "setting": "[1]; [2]", "result": 1.4, "unit": "µM"}, {"measurement": "A11- and OC-detectable signals (oligomers and fibrils)", "setting": "Aβ42; [3]", "result": "gradually decreased signal intensities"}, {"measurement": "A11- and OC-detectable signals (oligomers and fibrils)", "setting": "Aβ42; metal-free Aβ42 100 μM", "result": "the formation of Aβ oligomers and fibrils were reduced"}, {"measurement": "viability at 24 h, 100 μM", "setting": "MTT cytotoxicity assay; [4]", "result": "~70", "unit": "%"}]}, {"smiles": "O=c1cc(-c2ccccc2)oc2cc(O)cc(O)c12", "note": "[compound 1, chrysin]", "values": [{"measurement": "inhibitory activity against AChE (IC50 could not be obtained)", "setting": "[1]; fluorometric assay, eeAChE", "result": "negligible inhibitory activity"}, {"measurement": "A11- and OC-detectable signals (oligomers and fibrils)", "setting": "Aβ42; [3]", "result": "not significantly varied"}, {"measurement": "A11- and OC-detectable signals (oligomers and fibrils)", "setting": "Aβ42; metal-free Aβ42 100 μM", "result": "not significantly varied"}, {"measurement": "viability at 24 h, 100 μM", "setting": "MTT cytotoxicity assay; [5]", "result": "~30", "unit": "%"}]}, {"smiles": "O=c1cc(-c2ccccc2)oc2cc(O)c(O)cc12", "note": "[compound 2, 6,7-dihydroxyflavone]", "values": [{"measurement": "IC50", "setting": "[1]", "result": 4.18, "unit": "µM"}, {"measurement": "A11- and OC-detectable signals (oligomers and fibrils)", "setting": "Aβ42; [3]", "result": "not significantly varied"}, {"measurement": "A11- and OC-detectable signals (oligomers and fibrils)", "setting": "Aβ42; metal-free Aβ42 100 μM", "result": "not significantly varied"}, {"measurement": "viability at 24 h, 100 μM", "setting": "MTT cytotoxicity assay", "result": "~60", "unit": "%"}]}, {"smiles": "O=c1cc(-c2ccccc2)oc2ccc(O)c(O)c12", "note": "[compound 3, 5,6-dihydroxyflavone]", "values": [{"measurement": "IC50", "setting": "[1]; [2]", "result": 4.51, "unit": "µM"}, {"measurement": "viability at 24 h, 100 μM", "setting": "MTT cytotoxicity assay; [4]", "result": "~50", "unit": "%"}]}, {"smiles": "O=c1cc(-c2ccccc2)oc2cc(O)c(O)c(O)c12", "note": "[compound 4, baicalein]", "values": [{"measurement": "IC50", "setting": "[1]", "result": 1.95, "unit": "µM"}, {"measurement": "A11- and OC-detectable signals (oligomers and fibrils)", "setting": "Aβ42; metal-free Aβ42 100 μM", "result": "the formation of Aβ oligomers and fibrils were reduced"}, {"measurement": "viability at 24 h, 100 μM", "setting": "MTT cytotoxicity assay; [5]", "result": "~70", "unit": "%"}]}, {"smiles": "O=c1cc(-c2ccccc2)oc2c(Cl)c(O)c(O)c(O)c12", "note": "[compound 5, 8-chlorobaicalein]", "values": [{"measurement": "IC50", "setting": "[1]; [2]", "result": 12.3, "unit": "µM"}, {"measurement": "A11- and OC-detectable signals (oligomers and fibrils)", "setting": "Aβ42; metal-free Aβ42 100 μM", "result": "the formation of Aβ oligomers and fibrils were reduced"}, {"measurement": "viability at 24 h, 100 μM", "setting": "MTT cytotoxicity assay; [4]", "result": "~60", "unit": "%"}]}, {"smiles": "O=c1c(-c2ccc(O)c(O)c2)coc2cc(O)c(O)c(O)c12", "note": "[compound 6, 3-(3,4-dihydroxyphenyl)-5,6,7-trihydroxy-4H-chromen-4-one]", "values": [{"measurement": "IC50", "setting": "[1]; [2]", "result": 0.19, "unit": "µM"}, {"measurement": "A11- and OC-detectable signals (oligomers and fibrils)", "setting": "Aβ42; [3]", "result": "significantly decreased A11- and OC-detectable signal intensities"}, {"measurement": "A11- and OC-detectable signals (oligomers and fibrils)", "setting": "Aβ42; metal-free Aβ42 100 μM", "result": "significantly decreased A11- and OC-detectable signal intensities"}]}]}
